Data: patent publication US20110275635A1 (priority 2009, published 2011)
Converted amounts (≈) assume the structure as drawn. Where two headings read alike, the source gives them in different places.

Tests used:
hNaMNAT-1 = hNaMNAT-1 (Homo sapiens, UniProt Q9HAN9); assay: Human NAMNAT inhibition in vitro; assay type: biochemical
HCC1937 = assay: In vitro human breast cancer cell growth inhibition; assay type: cell-based
SUM159 = assay: as above; assay type: cell-based
MDA-MB-436 = assay: as above; assay type: cell-based
Hep-G2 = assay: In vitro inhibition of normal human cells; assay type: cell-based; conditions: HepG2
IMR90 = assay: In vitro inhibition of normal human cells; assay type: cell-based; conditions: IMR-90
HEK293 = assay: In vitro inhibition of normal human cells; assay type: cell-based
BEAS-23 = assay: In vitro inhibition of normal human cells; assay type: cell-based; conditions: read-out: In Vitro Inhibition Normal Human Cells (IC50, μM) BEAS-23
[1] = In vivo toxicity, maximum tolerated dose; conditions: female, BALB/c, mouse, intraperitoneal
B. anthracis = assay: microbe, parasite or virus in culture; assay type: cell-based; conditions: Bacillus anthracis, read-out: MIC (μg/mL) B. anthracis
S. aureus = assay: microbe, parasite or virus in culture; assay type: cell-based; conditions: Staphylococcus aureus, read-out: MIC (μg/mL) S. aureus
E. faecalis = assay: microbe, parasite or virus in culture; assay type: cell-based; conditions: Enterococcus faecalis, read-out: MIC (μg/mL) E. faecalis
S. aureus MRSA = assay: microbe, parasite or virus in culture; assay type: cell-based; conditions: Staphylococcus aureus, read-out: MIC (μg/mL) S. aureus MRSA
E. faecium VRE = assay: microbe, parasite or virus in culture; assay type: cell-based; conditions: Enterococcus faecium, read-out: MIC (μg/mL) E. faecium VRE
[2] = system: Bacillus anthracis Sterne; assay: microbe, parasite or virus in culture; assay type: cell-based
[3] = Pharmacokinetics, plasma concentration after intraperitoneal injection
B. anthracis NADs = B. anthracis NADs (Bacillus anthracis, UniProt Q81RP3); assay type: biochemical
B. cereus = assay: microbe, parasite or virus in culture; assay type: cell-based; conditions: Bacillus cereus, read-out: MIC (μg/mL) B. cereus
S. pneumoniae = assay: microbe, parasite or virus in culture; assay type: cell-based; conditions: Streptococcus pneumoniae, read-out: MIC (μg/mL) S. pneumoniae
[4] = HCC1937 cells, read-out: In Vitro Human Breast Cancer Inhibition (IC50, μM) HCC1937
[5] = SUM159 cells, read-out: In Vitro Human Breast Cancer Inhibition (IC50, μM) SUM159
[6] = MDA-MB-436 cells, read-out: In Vitro Human Breast Cancer Inhibition (IC50, μM) MDA-MB-436

B. anthracis NADs, sequence (Q81RP3 whole entry, looked up): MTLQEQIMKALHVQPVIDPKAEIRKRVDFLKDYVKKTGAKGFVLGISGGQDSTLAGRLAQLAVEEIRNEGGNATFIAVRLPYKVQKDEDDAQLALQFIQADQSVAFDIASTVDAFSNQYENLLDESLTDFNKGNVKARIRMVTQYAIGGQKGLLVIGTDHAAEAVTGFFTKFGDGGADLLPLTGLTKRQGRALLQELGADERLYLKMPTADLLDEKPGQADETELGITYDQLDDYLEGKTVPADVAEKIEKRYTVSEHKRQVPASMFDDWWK
hNaMNAT-1, sequence (Q9HAN9 whole entry): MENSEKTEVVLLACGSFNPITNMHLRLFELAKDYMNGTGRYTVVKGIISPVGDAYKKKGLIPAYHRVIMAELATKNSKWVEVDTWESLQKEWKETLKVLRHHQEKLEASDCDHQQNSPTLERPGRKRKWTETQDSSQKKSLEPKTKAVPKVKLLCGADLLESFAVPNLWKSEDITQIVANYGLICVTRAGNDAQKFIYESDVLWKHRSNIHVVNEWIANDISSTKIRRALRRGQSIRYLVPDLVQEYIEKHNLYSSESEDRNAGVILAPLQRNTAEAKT

| Compound | IC50 (hNaMNAT-1) [µM] | IC50 (Hep-G2) [µM] | IC50 (HCC1937; [4]) [µM] | IC50 (IMR90) [µM] | IC50 (HEK293) [µM] | IC50 (SUM159; [5]) [µM] | IC50 (MDA-MB-436; [6]) [µM] | IC50 (BEAS-23) [µM] | MTD [1] [mg/kg] | other results |
| --- | --- | --- | --- | --- | --- | --- | --- | --- | --- | --- |
| O=C(Nc1ccc(S(=O)(=O)Nc2ccccc2C(F)(F)F)cc1)Nc1cccc([N+](=O)[O-])c1 [Compound 6572] | > 600 |  |  |  |  |  |  |  |  | IC50 (HCC1937; HCC1937, read-out: In Vitro Human Breast Cancer Inhibition (IC50, μM) HCC1937): 35 µM; IC50 (SUM159; SUM159, read-out: In Vitro Human Breast Cancer Inhibition (IC50, μM) SUM159): 10 µM; IC50 (MDA-MB-436; MDA-MB-436, read-out: In Vitro Human Breast Cancer Inhibition (IC50, μM) MDA-MB-436): 35 µM |
| O=C(Nc1ccc(O)cc1)Nc1ccc(S(=O)(=O)Nc2ccc(Cl)c(Cl)c2)cc1 [Compound 6400] | 13 | 112 | 95 | > 200 | > 200 | 50 | 95 | > 200 |  |  |
| O=[N+]([O-])c1cc(S(=O)(=O)NCc2ccco2)ccc1NNC(=S)Nc1cccc(C(F)(F)F)c1 [Compound 6034] | 28 | 90 | 60 | 148 | 176 | 50 | 70 | 186 |  |  |
| CCOc1ccc(NS(=O)(=O)c2ccc(NC(=O)CCC(=O)c3ccccc3)cc2)cc1 [Compound 6484] |  |  |  |  |  |  |  |  | > 500 |  |
| O=C(Nc1ccc([N+](=O)[O-])cc1)Nc1ccc(S(=O)(=O)Nc2ccc(Cl)c(Cl)c2)cc1 [Compound 5824] |  |  |  |  |  |  |  |  | 25 | MIC (B. anthracis): 1.2 µg/mL (≈ 2.49 µM); MIC (S. aureus): 10.8 µg/mL (≈ 22.4 µM); MIC (E. faecalis): 14 µg/mL (≈ 29.1 µM); MIC (S. aureus MRSA): 5.5 µg/mL (≈ 11.4 µM); MIC (E. faecium VRE): 10.8 µg/mL (≈ 22.4 µM); activity against B. anthracis (in words) [2]: good activities; MIC ([2]; Bacillus anthracis, read-out: B.a. MIC (μM)): 1.9 µM (≈ 0.915 µg/mL); time to highest plasma drug concentration ([3]; 25 mg/kg (Bid), second dose 8 hr after first, time after first dose): about 12 hours; time to highest plasma drug concentration ([3]; 25 mg/kg (QD), mouse plasma): 2 h; time to highest plasma drug concentration ([3]; 50 mg/kg (QD), mouse plasma): 2 h; activity against NADs (in words) (B. anthracis NADs): good activities; IC50 (B. anthracis NADs; read-out: IC50): 10 µM; IC50 (B. anthracis NADs; read-out: NADs IC50): 10 µM; MIC (B. cereus): 0.78 µg/mL (≈ 1.62 µM); MIC (S. pneumoniae): 3.6 µg/mL (≈ 7.48 µM) |
| O=C(Nc1ccc(S(=O)(=O)Nc2ccc(Cl)c(Cl)c2)cc1)Nc1cccc([N+](=O)[O-])c1 [Compound 6333] |  |  |  |  |  |  |  |  | 250 |  |
| O=C(Nc1ccc(S(=O)(=O)Nc2ccc(Cl)c(Cl)c2)cc1)Nc1ccccc1O [Compound 6399] | 19 | 84 | 40 | 181 | 163 |  |  | 93 |  |  |
| Nc1ccc(NS(=O)(=O)c2ccc(NC(=O)Nc3ccc(Cl)c(Cl)c3)cc2)cc1 [Compound 6010] | > 600 | > 200 | 20 | > 200 | > 200 | 10 | 25 | > 200 |  |  |
